Source: the supplement of paper PMC4862054
Several values for one entry are separate records, joined by “and”; a condition that tells them apart may be missing. Equal values may be shown once.

How the values were obtained:
CAL-51 [1] = details: 72 h
In short: (§1)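 A 20 µl suspension of breast cancer cells was placed in 384-well plates that already contained compound at 5 concentrations in 10-fold steps across a compound-specific 10,000-fold range, and the plates were left for 72 h. CellTox Green fluorescence at 485/520 nm gave cell death, and CellTiter-Glo luminescence, read after 10 min at room temperature, gave viability. Each plate was normalised to 0.1 % DMSO and a positive kill control. EC50 was fitted from the curves and censored at the top concentration.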

MDA-MB-453 [2] = details: 72 h
In short: as §1

BT-474 [3] = assay: normalised viability (% of control), CellTiter-Blue; higher = more viable cells (about 100 = DMSO control); details: incubation time: 72 h
In short: (§2)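 Each entry is normalised viability at a single listed concentration within a series. It comes from breast cancer cell lines incubated 72 h with compound in 384-well plates, then measured with CellTiter-Blue fluorescence at 560/590 nm. Every plate was normalised between vehicle (100) and a positive kill control (0).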

CAL-120 [4] = assay: as above; details: incubation time: 72 h
In short: as §2

CAL-85-1 [5] = assay: as above; details: incubation time: 72 h
In short: as §2

Hs578T [6] = assay: as above; details: incubation time: 72 h
In short: as §2

MDA-MB-436 [7] = assay: as above; details: incubation time: 72 h
In short: as §2

MDA-MB-468 [8] = assay: as above; details: incubation time: 72 h
In short: as §2

BT-549 [9] = assay: normalised viability (% of control), CellTiter-Blue; higher = more viable cells (100 = DMSO, 0 = benzethonium chloride kill control); details: incubation time: 72 h
Protocol: (§3)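 DSRT, CellTiter-Blue viability, 72 h incubation. Signal is normalised to DMSO and benzethonium chloride controls. Value is the normalised response at dose 1.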

CAL-120 [10] = assay: as above; details: incubation time: 72 h
Protocol: as §3

CAL-148 = assay: as above; details: incubation time: 72 h
Protocol: as §3

CAL-51 [11] = assay: as above; details: incubation time: 72 h
Protocol: as §3

CAL-85-1 [12] = assay: as above; details: incubation time: 72 h
Protocol: as §3

DU-4475 = assay: as above; details: incubation time: 72 h
Protocol: as §3

HCC1143 = assay: as above; details: incubation time: 72 h
Protocol: as §3

HCC1599 = assay: as above; details: incubation time: 72 h
Protocol: as §3

HCC1937 [13] = assay: as above; details: incubation time: 72 h
Protocol: as §3

Hs578T [14] = assay: as above; details: incubation time: 72 h
Protocol: as §3

MDA-MB-231 [15] = assay: as above; details: incubation time: 72 h
Protocol: as §3

MDA-MB-436 [16] = assay: as above; details: incubation time: 72 h
Protocol: as §3

MDA-MB-453 [17] = assay: as above; details: incubation time: 72 h
Protocol: as §3

MDA-MB-468 [18] = assay: as above; details: incubation time: 72 h
Protocol: as §3

MFM-223 = assay: as above; details: incubation time: 72 h
Protocol: as §3

SK-BR-3 [19] = assay: as above; details: incubation time: 72 h
Protocol: as §3

BT-474 [20] = assay: as above; details: incubation time: 72 h
Protocol: as §3

HDQ-P1 = assay: as above; details: incubation time: 72 h
Protocol: as §3

BT-549 [21] = details: 72 h
In short: as §1

CAL-120 [22] = details: 72 h
In short: as §1

CAL-85-1 [23] = details: 72 h
In short: as §1

Hs578T [24] = details: 72 h
In short: as §1

MCF-10A = details: 72 h
In short: as §1

MDA-MB-231 [25] = details: 72 h
In short: as §1

BT-474 [26] = details: 72 h
In short: as §1

HCC1937 [27] = details: 72 h
In short: as §1

MDA-MB-436 [28] = details: 72 h
In short: as §1

MDA-MB-468 [29] = details: 72 h
In short: as §1

SK-BR-3 [30] = details: 72 h
In short: as §1

For `Cc1ccc(NC(=O)c2ccc(CN3CCN(C)CC3)cc2)cc1Nc1nccc(-c2cccnc2)n1` [Imatinib], the “EC50, CellTiter-Glo” value (CAL-51 [1]) was 4.17 µM, the “EC50, CellTiter-Glo” value (MDA-MB-453 [2]) was over 10 µM and the normalised viability (BT-474 [3]; 10 nM) was 108% and 112%. The normalised viability (CAL-120 [4]; 10 nM) was 81.6% and 90.2%, the normalised viability (CAL-85-1 [5]; 3 nM) was 91.5% and 91.4% and the normalised viability (Hs578T [6]; 10 nM) was 106% and 119%. For the same compound, the normalised viability (MDA-MB-436 [7]; 10 nM) was 117% and 111%, the normalised viability (MDA-MB-468 [8]; 10 nM) was 95.9% and 102% and the normalised viability (BT-549 [9]; 1 nM) was 104% and 116%. The normalised viability (CAL-120 [10]; 1 nM) was 88.5% and 91%, the normalised viability (CAL-148; 1 nM) was 86.2% and 97.6% and the normalised viability (CAL-51 [11]; 1 nM) was 99.8% and 100%. The normalised viability (CAL-85-1 [12]; 1 nM) was 87.5% and 85.1%, the normalised viability (DU-4475; 1 nM) was 99% and 111% and the normalised viability (HCC1143; 1 nM) was 88.9% and 93%. For the same compound, the normalised viability (HCC1599; 1 nM) was 109% and 104%, the normalised viability (HCC1937 [13]; 1 nM) was 81.9% and 101% and the normalised viability (Hs578T [14]; 1 nM) was 99.3% and 102%. The normalised viability (MDA-MB-231 [15]; 1 nM) was 90.8% and 95.5%, the normalised viability (MDA-MB-436 [16]; 1 nM) was 90.1% and 106% and the normalised viability (MDA-MB-453 [17]; 1 nM) was 106% and 102%. The normalised viability (MDA-MB-468 [18]; 1 nM) was 102% and 105%, the normalised viability (MFM-223; 1 nM) was 93.1% and 97.1% and the normalised viability (SK-BR-3 [19]; 1 nM) was 89.3% and 102%.

For `Cn1c(=O)n(-c2ccc(C(C)(C)C#N)cc2)c2c3cc(-c4cnc5ccccc5c4)ccc3ncc21` [NVP-BEZ235], the normalised viability (BT-474 [3]; 1 nM) was 105%, the normalised viability (CAL-120 [4]; 1 nM) was 89.8% and the normalised viability (CAL-85-1 [5]; 0.3 nM) was 96.6%. The normalised viability (Hs578T [6]; 1 nM) was 100%, the normalised viability (MDA-MB-436 [7]; 1 nM) was 126% and the normalised viability (MDA-MB-468 [8]; 1 nM) was 102%. The normalised viability (BT-474 [20]; 0.1 nM) was 105%, the normalised viability (BT-549 [9]; 0.1 nM) was 112% and the normalised viability (CAL-120 [10]; 0.1 nM) was 96.6%. The normalised viability (CAL-148; 0.1 nM) was 114%, the normalised viability (CAL-51 [11]; 0.1 nM) was 102% and the normalised viability (CAL-85-1 [12]; 0.1 nM) was 96.9%. It also gave a normalised viability (DU-4475; 0.1 nM) of 129%, a normalised viability (HCC1143; 0.1 nM) of 98.9% and a normalised viability (HCC1599; 0.1 nM) of 125%. The normalised viability (HCC1937 [13]; 0.1 nM) was 95.9%, the normalised viability (HDQ-P1; 0.1 nM) was 113% and the normalised viability (Hs578T [14]; 0.1 nM) was 105%. The normalised viability (MDA-MB-231 [15]; 0.1 nM) was 111%, the normalised viability (MDA-MB-436 [16]; 0.1 nM) was 119% and the normalised viability (MDA-MB-453 [17]; 0.1 nM) was 96.8%. For the same compound, the normalised viability (MDA-MB-468 [18]; 0.1 nM) was 108%, the normalised viability (MFM-223; 0.1 nM) was 99.3% and the normalised viability (SK-BR-3 [19]; 0.1 nM) was 100%.

In the case of `COc1ccccc1S(=O)(=O)Nc1ccc2c(c1)CN(C)C(=O)N2` [PFI-1], the “EC50, CellTiter-Glo” value (BT-549 [21]) is reported as 1.35 µM, the “EC50, CellTiter-Glo” value (CAL-120 [22]) is reported as 2.57 µM and the “EC50, CellTiter-Glo” value (CAL-51 [1]) is reported as 6.31 µM. The “EC50, CellTiter-Glo” value (CAL-85-1 [23]) was 8.46 µM, the “EC50, CellTiter-Glo” value (Hs578T [24]) was 1.81 µM and the “EC50, CellTiter-Glo” value (MCF-10A) was 4.16 µM. For the same compound, the “EC50, CellTiter-Glo” value (MDA-MB-231 [25]) was 1.61 µM and the “EC50, CellTiter-Glo” value (MDA-MB-453 [2]) was 1.98 µM.

`NS(=O)(=O)OC[C@@H]1C[C@@H](n2ccc3c(N[C@H]4CCc5ccccc54)ncnc32)C[C@@H]1O` [Pevonedistat] was tested, and the “EC50, CellTiter-Glo” value (BT-474 [26]) was 0.769 µM, the “EC50, CellTiter-Glo” value (BT-549 [21]) was 0.168 µM and the “EC50, CellTiter-Glo” value (CAL-120 [22]) was 0.448 µM. For the same compound, the “EC50, CellTiter-Glo” value (CAL-51 [1]) was 0.0912 µM, the “EC50, CellTiter-Glo” value (CAL-85-1 [23]) was 0.191 µM and the “EC50, CellTiter-Glo” value (HCC1937 [27]) was 2.94 µM. For the same compound, the “EC50, CellTiter-Glo” value (Hs578T [24]) was 0.679 µM, the “EC50, CellTiter-Glo” value (MDA-MB-231 [25]) was 0.953 µM and the “EC50, CellTiter-Glo” value (MDA-MB-436 [28]) was 0.294 µM. For the same compound, the “EC50, CellTiter-Glo” value (MDA-MB-453 [2]) was 0.78 µM, the “EC50, CellTiter-Glo” value (MDA-MB-468 [29]) was 0.0685 µM and the “EC50, CellTiter-Glo” value (SK-BR-3 [30]) was 0.0257 µM.

Work on `CNNCc1ccc(C(=O)NC(C)C)cc1` [Procarbazine] yielded a normalised viability (BT-474 [3]; 10 nM) of 106%, a normalised viability (CAL-120 [4]; 10 nM) of 104% and a normalised viability (CAL-85-1 [5]; 3 nM) of 95.6%. It also gave a normalised viability (Hs578T [6]; 10 nM) of 105%, a normalised viability (MDA-MB-436 [7]; 10 nM) of 97% and a normalised viability (MDA-MB-468 [8]; 10 nM) of 105%. It also gave a normalised viability (BT-474 [20]; 1 nM) of 92.5%, a normalised viability (BT-549 [9]; 1 nM) of 113% and a normalised viability (CAL-120 [10]; 1 nM) of 97%. The normalised viability (CAL-148; 1 nM) was 108%, the normalised viability (CAL-51 [11]; 1 nM) was 100% and the normalised viability (CAL-85-1 [12]; 1 nM) was 92.4%. It also gave a normalised viability (DU-4475; 1 nM) of 110%, a normalised viability (HCC1143; 1 nM) of 103% and a normalised viability (HCC1599; 1 nM) of 84.6%. It also gave a normalised viability (HCC1937 [13]; 1 nM) of 78.9%, a normalised viability (HDQ-P1; 1 nM) of 120% and a normalised viability (Hs578T [14]; 1 nM) of 107%. For the same compound, the normalised viability (MDA-MB-231 [15]; 1 nM) was 112%, the normalised viability (MDA-MB-436 [16]; 1 nM) was 99.3% and the normalised viability (MDA-MB-453 [17]; 1 nM) was 110%. The normalised viability (MDA-MB-468 [18]; 1 nM) was 104%, the normalised viability (MFM-223; 1 nM) was 102% and the normalised viability (SK-BR-3 [19]; 1 nM) was 106%.
